ChEMBL document CHEMBL1156829 (Proc Natl Acad Sci U S A, 2008)
pEC50: −log10 of the molar value.

Legend:
[1] = tested on: Plasmodium falciparum; experiment: NOVARTIS: Inhibition of Plasmodium falciparum 3D7 (drug-susceptible) proliferation in erythrocyte-based infection assay; type: functional, organism-based; details: Plasmodium falciparum, 3D7
[2] = tested on: Plasmodium falciparum; experiment: NOVARTIS: Inhibition of Plasmodium falciparum W2 (drug-resistant) proliferation in erythrocyte-based infection assay; type: functional, organism-based; details: Plasmodium falciparum, W2; read-out: EC50
[3] = NOVARTIS: Cytotoxicity against human hepatocellular carcinoma cell line (Huh7); type: toxicity, cell-based, Huh-7; details: Huh7 cells (hepatocellular carcinoma cell line)

Row | Structure (SMILES) | pEC50 [1] | pEC50 [2] | CC50 [3] [nM]
1 | COc1ccc2nc(-c3ccccc3)cc(O)c2c1 | 6.39 | 6.50 | 835
2 | CC[C@H]1CN2CCc3cc(OC)c(OC)cc3[C@@H]2C[C@@H]1C[C@@H]1NCCc2cc(OC)c(OC)cc21 | 7.97 | 7.64 | 82.2
3 | Cc1ccc(NC(C)c2nc3ccccc3c(=O)n2CCOC2CCCCO2)cc1C (stereo unspecified) | 6.10 | 5.99 | > 2700
4 | O=C(Nc1ccc(-c2nc3cc(NC(=O)c4ccc(Br)o4)ccc3[nH]2)cc1)c1ccc(Br)o1 | 6.53 | 6.15 | 2250
5 | COc1ccc2[nH]c3c(c2c1)CCNC3c1ccc(OC)c(CSc2nnc(-c3ccccc3)o2)c1 (stereo unspecified) | 5.39 | 5.70 | 7420
6 | OCCNCCNCc1ccc2[nH]c3ccccc3c2c1 | 6.54 | 5.12 | 28900
7 | CC(C)(C)c1ccc(C=CC(=O)NCc2ccco2)cc1 | 6.21 | 6.49 | 1140
8 | CN(C)CCCNc1cc(-c2ccccc2)nc2ccccc12 | 6.91 | 5.29 | 18600
9 | COc1cc(NC(C)CCCN(Cc2ccc(OC)c(OC)c2)C(=O)NC2CCCCC2)c2ncccc2c1 (stereo unspecified) | 6.17 | 6.47 | 1300
10 | N#CN=C(N)c1sc(Nc2ccccc2)nc1N | 6.09 | 5.62 | 9370
11 | CC(C)CN(CC(=O)N1CCC(Nc2nsc3ccccc23)C1)S(C)(=O)=O (stereo unspecified) | 5.70 | 5.40 | 15700
12 | CC[n+]1c(/C=C/C=C2\N(C)c3ccccc3C2(C)C)n(-c2ccccc2)c2cc(Cl)ccc21 | 6.54 | 6.28 | 1690
13 | COc1ccccc1/C=C\CN(C(=O)c1ccc(C)cc1)C(c1ccccc1)c1ccccc1 | 5.95 | < 5.87 | > 4360
14 | CCCCN(C)Cc1ccc2c(NC(=O)c3ccc(C)s3)c(C(=O)OC)sc2n1 | 6.27 | 6.34 | 1520
15 | COc1ccc(C(=O)N2C(C(=O)NCCC(C)C)CSC2c2ccc(C(C)(C)C)cc2)cc1 (stereo unspecified) | 6.10 | 5.95 | > 4480
16 | NC(=O)c1ccc2c(c1)N=C(/C=C/c1ccccc1)N(C1CC1)C2 | 7.13 | 5.25 | 23000
17 | CC(=O)N(/C=C1/Sc2ccccc2C1=O)c1ccc(C)cc1 | < 5.90 | 5.62 | > 10000
18 | CN(C)CCN1CCN(c2ccnc3cc4ccccc4cc23)CC1 | 6.96 | 6.43 | 1550
19 | CCOc1ccc(NC(=O)c2ccc(C)o2)cc1 | 5.43 | 5.35 | 13000
20 | c1ccc2c(c1)CSc1sccc1C2=C1CCNCC1 | 7.06 | 5.36 | 13000
21 | Cc1cc(Nc2cccc(Cl)c2)nc2ccc(NC(=O)c3cccnc3)cc12 | 6.14 | 5.88 | 4190
22 | CCN1C(=O)c2ccccc2Sc2ccc(NC(=O)NCCCOC(C)C)cc21 | < 5.00 | < 5.00 | 32100
23 | CN1CCN(c2ccc(NC(=O)Oc3ccccc3)cc2)CC1 | 5.38 | 5.13 | 25400
24 | CCC(c1nc2ccccc2c(=O)n1-c1cccc(Cl)c1)N(CCC(C)C)C(=O)COCc1ccccc1 (stereo unspecified) | 5.92 | < 5.94 | 3910
25 | CCOc1cc(Br)cc(C=NNC(=O)COc2cccc(C)c2)c1O | 5.12 | < 4.90 | > 46200
26 | O=S(=O)(/C=C/c1ccccc1)NCCCCNc1ccnc2cc(Cl)ccc12 | 6.39 | 6.40 | 1480

Row | Structure (SMILES) | pEC50 [1] | pEC50 [2] | CC50 [3] [nM]
27 | CCC(C)(C)C1CCc2c(sc(NC(=O)c3ccc(F)cc3)c2C(N)=O)C1 (stereo unspecified) | < 5.90 | 5.63 | > 10000
28 | CCN(C(=O)Cn1c(=O)oc2ccccc21)c1ccc(F)cc1 | < 5.82 | 5.64 | > 10000
29 | Cc1ccc2nc(C)cc(NCCCN(C)C)c2c1 | 6.39 | 6.08 | > 3620
30 | COc1ccc(C2C(C(=O)Nc3ccc(OC)c(OC)c3)CCC(=O)N2c2ccc(OC)cc2)cc1 (stereo unspecified) | < 5.87 | 5.64 | > 10000
31 | COc1ccccc1C1SCCN1C(=O)Nc1ccc(Cl)c(Cl)c1 (stereo unspecified) | < 5.99 | 5.65 | > 10000
32 | COc1ccc(C(=O)N2C(C(=O)Nc3ccc(C)cc3)CSC2c2ccc(C(C)(C)C)cc2)cc1 (stereo unspecified) | 5.98 | 5.93 | > 2970
33 | C[n+]1c(C=Cc2ccc(Cl)c(Cl)c2)ccc2ccccc21 | 6.28 | 5.75 | 5370
34 | COc1cc(C(=O)Nc2c3c(nn2-c2cc(C)cc(C)c2)CSC3)cc(OC)c1OC | 6.04 | 6.47 | > 1070
35 | O=C(CCC1CCCC1)NC1CCC(Nc2ccnc3cc(Cl)ccc23)CC1 (stereo unspecified) | 5.99 | 6.06 | > 3890
36 | COc1ccc(N2CCN(c3ncnc4sc(C(=O)NCc5cccnc5)c(C)c34)CC2)cc1 | < 4.95 | < 5.09 | 20700
37 | NC(=O)C1CCCN(C(=O)COC(c2ccccc2)c2cccnc2Cl)C1 (stereo unspecified) | 5.32 | < 4.90 | 45600
38 | COc1cc(-c2nc3ccc(N4CCN(C)CC4)cc3[nH]2)cc(OC)c1OC | 6.13 | 5.25 | 21200
39 | CC(=O)Nn1c(C(C)(C)C)nc2ccccc2c1=O | < 5.83 | 5.61 | > 10000
40 | Cc1ccc(C)c2[nH]c(=O)c(CN(Cc3ccccc3)C(=S)NCCCN(C)C)cc12 | 5.28 | < 5.33 | 19500
41 | CCn1nc(/C=C/c2ccccc2)nc2c(=O)n(C)c(=O)nc1-2 | < 5.48 | < 5.00 | 42000
42 | Nc1nnc(CCSc2ccc(Cl)cc2)s1 | 6.76 | < 5.90 | > 3710
43 | COc1cccc2c1OCC(C(=O)Nc1ccc(C)cc1)=C2 | 6.34 | < 4.90 | 54700
44 | CCOc1ccc2c(c1)c1nnc(-c3ccc4c(c3)OCO4)c-1cn2Cc1ccc(Cl)cc1 | 5.08 | 5.30 | 14600
45 | Cn1ccnc1C(=O)NNc1ncc(C(F)(F)F)cc1Cl | 6.22 | 6.44 | 1150
46 | O=C1NC(=S)N/C1=C/c1ccc(C(F)(F)F)cc1 | < 5.99 | < 5.96 | > 2880
47 | CC1=C(CC(=O)c2cccc([N+](=O)[O-])c2)C(=O)c2ccccc2C1=O | 5.55 | 5.76 | 4690
48 | O=C(Nc1cccc(C(F)(F)F)c1)c1ccc(-c2cccs2)cc1 | 5.00 | 5.71 | 7130
49 | c1ccc(-c2ccc(-c3ccccn3)nc2)nc1 | 6.54 | 6.85 | 360
50 | Clc1cccc(CNC2CCN(CCc3ccccc3)CC2)c1 | 6.53 | 6.10 | 3040
51 | O=[N+]([O-])c1cc(C(F)(F)F)cc([N+](=O)[O-])c1Sc1cccc2cccnc12 | 5.36 | 5.95 | 4340
52 | CC(C)(C)C1=NN(CC(=O)Nc2ccc3c(c2)OCO3)C(=O)c2cc3ccccc3n2C1 | < 4.90 | 5.50 | 9810
